In ChEMBL document CHEMBL1138934, “Indenone derivatives: a novel template for peroxisome proliferator-activated receptor gamma (PPARgamma) agonists” (J Med Chem, 2006):

Experiments:
[1] = target: T1, Peroxisome proliferator-activated receptor gamma (Homo sapiens, UniProt P37231)
T1 sequence (P37231 whole entry): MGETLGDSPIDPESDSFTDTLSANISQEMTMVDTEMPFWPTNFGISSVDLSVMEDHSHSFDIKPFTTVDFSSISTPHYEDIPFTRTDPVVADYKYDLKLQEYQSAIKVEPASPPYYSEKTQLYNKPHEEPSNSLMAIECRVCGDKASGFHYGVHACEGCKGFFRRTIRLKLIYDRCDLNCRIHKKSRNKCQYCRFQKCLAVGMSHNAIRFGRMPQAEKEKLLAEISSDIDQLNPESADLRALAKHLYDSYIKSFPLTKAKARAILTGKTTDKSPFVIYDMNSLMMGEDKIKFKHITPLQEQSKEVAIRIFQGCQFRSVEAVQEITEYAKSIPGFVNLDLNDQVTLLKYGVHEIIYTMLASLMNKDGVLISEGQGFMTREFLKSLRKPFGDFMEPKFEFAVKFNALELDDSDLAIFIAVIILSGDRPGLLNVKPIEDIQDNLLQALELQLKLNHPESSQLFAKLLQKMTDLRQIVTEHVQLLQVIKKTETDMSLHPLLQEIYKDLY
Description: Activity at human PPAR gamma transfected in NIH3T3 cells by luciferase activity assay

[2] = target: T2, Peroxisome proliferator-activated receptor alpha (Homo sapiens, UniProt Q07869); assay: Activity at human PPAR alpha
T2 sequence (Q07869 whole entry): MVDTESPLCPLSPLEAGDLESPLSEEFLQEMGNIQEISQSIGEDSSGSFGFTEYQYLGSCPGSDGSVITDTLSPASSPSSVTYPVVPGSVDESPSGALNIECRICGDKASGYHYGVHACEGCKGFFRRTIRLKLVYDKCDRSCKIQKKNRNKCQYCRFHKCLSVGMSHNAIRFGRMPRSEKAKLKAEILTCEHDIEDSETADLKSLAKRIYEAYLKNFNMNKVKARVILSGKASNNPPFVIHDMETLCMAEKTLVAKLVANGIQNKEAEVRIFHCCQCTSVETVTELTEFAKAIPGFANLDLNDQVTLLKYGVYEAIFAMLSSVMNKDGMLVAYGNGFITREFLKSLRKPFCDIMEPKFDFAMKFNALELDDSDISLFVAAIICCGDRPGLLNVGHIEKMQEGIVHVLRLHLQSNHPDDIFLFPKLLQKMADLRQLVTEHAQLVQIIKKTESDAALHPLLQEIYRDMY

CCOC(=O)CC1=C(c2ccccc2)c2ccc(OC)cc2C1=O
EC50 [1]: 300 nM

CCOC(=O)C1=C(C23CC4CC(CC(C4)C2)C3)c2ccc(OC)cc2C1=O
EC50 [1]: 2500 nM

CCOC(=O)C1=C(c2ccoc2)c2ccc(OC)cc2C1=O
EC50 [1]: 1000 nM

CCOC(=O)C1=C(c2ccccc2)c2ccc(OC)cc2C1=O
EC50 [2]: > 100000 nM | EC50 [1]: 300 nM

CCOC(=O)C1=C(c2ccccc2)c2ccc(OCc3ccccc3)cc2C1=O
EC50 [1]: 220 nM

CCOC(=O)C1=C(c2ccccc2)c2ccc(OC)cc2/C1=N/O
EC50 [1]: > 10000 nM

CCOC(=O)C1=C(c2ccccc2)c2ccc(OCCc3ccccc3)cc2C1=O
EC50 [1]: 210 nM

CCOC(=O)C1=C(c2ccccc2)c2ccc(OC)cc2C1
EC50 [1]: > 10000 nM

CCOC(=O)C1=C(c2ccccc2)c2ccc(OCCCc3ccccc3)cc2C1=O
EC50 [1]: 50 nM
